The source of these data is US20050069947A1, “Antibodies specific for nanotubes and related methods and compositions” (priority 2001, published 2005).

Series [1] relates to anti-fullerene antibodies. Kind of series: ELISA inhibition of antibody binding to 1-RSA. More on the design: species or system mice. The conditions noted are these: for inhibition of antibody binding to 1-RSA (ELISA inhibition): serum of mice immunized with 1-TG, plates coated with 1-RSA; for reactivity with polyclonal antibodies raised to C60: method not stated at the place. The protocol:
After a total of three immunizations at 3-week intervals, confirmation of an immune response was determined by direct ELISA in which polystyrene plates (Corning) were coated with the 1-RSA conjugate (0.5 mg/ml in 0.1 M NaHCO3, pH 9), and binding of preimmune and immune sera were determined by standard procedures. Development was with horseradish peroxidase-labeled goat anti-mouse IgG (Sigma), which tested negative for crossreaction with an IgM preparation. The substrate used was o-phenylenediamine.
(§1) Specificity of the response was determined by two procedures: double diffusion in agar (22) and competitive inhibition, as determined by ELISA using RSA and BSA conjugates of the fullerenes, as well as the oligo lysine derivatives. The fullerenes themselves were not soluble enough in aqueous solutions.
The adenosine conjugate had been synthesized using the same strategy used for the fullerenes, i.e., linkage to the epsilon amino groups of the lysines via an N-hydroxysuccinimide ester derivative.
After a total of 3 immunizations at 3 week intervals, confirmation of an immune response was determined by direct ELISA in which polystyrene plates (Corning) were coated with 1-RSA conjugate (0.5 mg/ml in O.1 N NaHCO3, pH 9) and binding of preimmune and immune sera determined by standard procedures. Development was with horseradish peroxide-labeled goat anti-mouse IgG (Sigma, St. Louis, MO) which tested negative for cross reaction with an IgM preparation. The substrate used was o-phenylenediamine.
(§2) Specificity of the response was determined by two procedures: double diffusion in agar and competitive inhibition, as determined by ELISA using RSA and BSA conjugates of the fullerenes, as well as the oligo lysine derivatives. The fullerenes themselves were not soluble enough in aqueous solutions.
(In general: An ELISA detects its analyte on a solid surface through an enzyme-linked reagent.)

The conditions of series [2]: acute and subchronic topical applications; cited from earlier work.
Series [3] in a line: Gamma-camera imaging biodistribution study. It counts as in vivo, Sprague-Dawley rats. The method, then: The biodistribution in mice of hydroxylated lanthanide-C82 encapsulates is under current investigation. The results presented here are regarded as preliminary as the sample is still small. Studies continue under a NIH Phase I grant. The neutron irradiated samples, along with a […] control sample, were used to perform a γ-camera imaging study on four 300 g Sprague-Dawley rats. Two rats were injected intraperitoneally (IP) with 54 and 18 μCi of ^166Ho activity from samples containing irradiated Ho-metallofullerois. Two control studies were performed by […] of approximately 660 μCi of ^166Ho^3+ in a 1% sodium citrate buffer. The anesthetized rats were scanned side-by-side on a single stage with a γ-camera starting 1 hour after injection and periodically thereafter over the ensuing 48 hours.

In series [4] the test system is anti-fullerene antibodies. Nature of the series: Double diffusion in agar. It counts as binding, mice. The method, then: as §1, §2

Consider RSA: rabbit serum albumin, control, for which the “inhibition of antibody binding to 1-RSA (ELISA inhibition)” value in series [1] is recorded as “No inhibition”.
`c12c3c4c5c1c1c6c7c2c2c8c3c3c9c4c4c%10c5c5c1c1c6c6c%11c%12c%13c%14c%15c%16c%17c%14c%14c%18c%13c%11c1c1c5c%10c5c(c%14c%10c%17c%11c%13c%16c%14c%16c%15c%12c%12c%16c(c2c7c%126)c2c8c3c(c%13c%142)c2c9c4c5c%10c%112)c%181` [Compound C70]: the “reactivity with polyclonal antibodies raised to C60” value in series [1] was “non-reactive”; in series [1] (listed as C70 fullerene), “crossreacted”. Also, the carcinogenic effects result in series [2] is recorded as “lack of carcinogenic effects”.
In the case of `[166Ho+3]` [^166Ho^3−], in series [3] (IP, commencing as soon as 1 hour post-injection), the urinary clearance entry is recorded as “rapid”. Further, the “^166Ho activity excreted” value in series [3] (after 24 hours) was “essentially all”.
As for “TG: unsubstituted bovine thyroglobulin, carrier protein”, in series [1], the “inhibition of antibody binding to 1-RSA (ELISA inhibition)” value is on record as “No inhibition”. Moreover, the “precipitation in double diffusion in agar” value in series [4] (TG solution diluted 5-fold) is on record as “a line of precipitation was seen”; in series [4] (serum of mice immunized with 1-TG), “no visible precipitate”.
